Reference: patent US20110039762A1, “TARGETED ANTIMICROBIAL MOIETIES” (C3 JIAN, INC., priority 2009, published 2011)
Entries after “also recorded” stand apart in the source; their conditions may differ. Ends that are not written are not given here.

Columns and labels:
MRSA = test: Kill or inhibit growth/proliferation; morphology, biofilm and growth disruption (Tables 5, 6); format: cell-based, Methicillin-resistant Staphylococcus aureus; design: key: A: Peptide aggregates; B: Less hyphal formation; Clumps; Diffuse clumps and small polyps; F: Diffuse growth; H: Thin; I: Growth inhibition; Microcolony formation; Rippled; Small polyps; Thick; W: Halo formation on top, microlonies on bottom; further: test concentration or dose not given here
S. epidermidis = test: as above; format: cell-based, Staphylococcus epidermidis; design: key: A: Peptide aggregates; B: Less hyphal formation; Clumps; Diffuse clumps and small polyps; F: Diffuse growth; H: Thin; I: Growth inhibition; Microcolony formation; Rippled; Small polyps; Thick; W: Halo formation on top, microlonies on bottom
S. pneumoniae = test: as above; format: cell-based, Streptococcus pneumoniae; design: key: A: Peptide aggregates; B: Less hyphal formation; Clumps; Diffuse clumps and small polyps; F: Diffuse growth; H: Thin; I: Growth inhibition; Microcolony formation; Rippled; Small polyps; Thick; W: Halo formation on top, microlonies on bottom; further: test concentration or dose not given here
E. coli = test: as above; format: cell-based, Escherichia coli; design: key: A: Peptide aggregates; B: Less hyphal formation; Clumps; Diffuse clumps and small polyps; F: Diffuse growth; H: Thin; I: Growth inhibition; Microcolony formation; Rippled; Small polyps; Thick; W: Halo formation on top, microlonies on bottom
microorganisms = test: Peptides having multiple activities (targeting/binding, antimicrobial, growth or phenotype altering)
Text: In certain embodiments, peptides described herein can have multiple activities. Thus for example, a peptide can have both binding/targeting activity and antimicrobial activity. Such peptides can be used, e.g., in a chimeric construct, for any or all of these properties. Thus, for example, a peptide designated “B” in Table 8 can be used as a targeting peptide. If it is also designated G or M it can also be used for antimicrobial activity.

E. faecalis = test: Kill or inhibit growth/proliferation; morphology, biofilm and growth disruption (Tables 5, 6); format: cell-based, Enterococcus faecalis; design: key: A: Peptide aggregates; B: Less hyphal formation; Clumps; Diffuse clumps and small polyps; F: Diffuse growth; H: Thin; I: Growth inhibition; Microcolony formation; Rippled; Small polyps; Thick; W: Halo formation on top, microlonies on bottom; further: test concentration or dose not given here
[1] = system: microorganisms (e.g., bacteria, yeasts, fungi); test: Targeting peptide binding to target microorganisms (Table 3); settings: microorganism(s) the targeting peptide binds, preferably 1x PBS
[2] = binding in aqueous buffers depending on peptide solubility
[3] = peptide binding conducted in aqueous buffers varied by peptide solubility
Wherever Organism, effect is given: test concentration or dose not given here.

PF-178: peptide having multiple activities (EVYSSPTNNVAITVQNN; Peptide with targeting and/or antimicrobial activity)
Organism, effect (MRSA): MRSA (M)
Organism, effect (S. epidermidis): S. epidermidis (D)
Organism, effect (S. pneumoniae): S. pneumoniae (D)
Organism, effect (E. coli): E. coli (C)
Activities (microorganisms): G B

PF-347: peptide having multiple activities (GIFTGVTVVVSLKHC; Peptide with targeting and/or antimicrobial activity)
Organism, effect (E. faecalis): E. faecalis (C)
Organism, effect (MRSA): MRSA (C)
Organism, effect (S. epidermidis): S. epidermidis (C)
Organism, effect (E. coli): E. coli (C)
Activities (microorganisms): G B

PF-360: peptide having multiple activities (chain 1 MEQKVKVIFVPRSKPDNQLKTFVSAVLFKA; chain 2 MEQKVKVIFVPRSKPDNQLKTFVSAVLFKA; Peptide with targeting and/or antimicrobial activity)
Organism, effect (MRSA): MRSA (H)
Organism, effect (S. epidermidis): S. epidermidis (S)
Organism, effect (E. coli): E. coli (C)
Target(s) [1, 2]: S. epidermidis; also recorded: B. subtilis; also recorded: E. coli; also recorded: P. aeruginosa; also recorded: C. albicans; also recorded: E. faecalis; also recorded: C. jeikeium; also recorded: C. jejuni
Activities (microorganisms): G B

PF-370: peptide having multiple activities (chain 1 VIFLHKESGNLKEIFY; chain 2 VIFLHKESGNLKEIFY; Peptide with targeting and/or antimicrobial activity)
Organism, effect (MRSA): MRSA (C)
Organism, effect (S. epidermidis): S. epidermidis (C)
Organism, effect (E. coli): E. coli (R)
Target(s) [1, 2]: S. epidermidis; also recorded: E. coli; also recorded: P. aeruginosa; also recorded: E. faecalis; also recorded: C. jejuni
Activities (microorganisms): G B

PF-374: peptide having multiple activities (chain 1 HLFFVKGMFILCQKNQINDE; chain 2 HLFFVKGMFILCQKNQINDE; Peptide with targeting and/or antimicrobial activity)
Organism, effect (E. faecalis): E. faecalis (C)
Organism, effect (MRSA): MRSA (M)
Organism, effect (S. epidermidis): S. epidermidis (C)
Organism, effect (E. coli): E. coli (C)
Activities (microorganisms): G B

PF-376: peptide having multiple activities (chain 1 MTVFEALMLAIAFATLIVKISNKNDKK; chain 2 MTVFEALMLAIAFATLIVKISNKNDKK; Peptide with targeting and/or antimicrobial activity)
Organism, effect (E. faecalis): E. faecalis (C)
Organism, effect (MRSA): MRSA (C)
Organism, effect (S. epidermidis): S. epidermidis (C)
Organism, effect (E. coli): E. coli (C)
Activities (microorganisms): G B

PF-379: peptide having multiple activities (chain 1 VFVVLFIIYLASKLLTKLFPIKK; chain 2 VFVVLFIIYLASKLLTKLFPIKK; Peptide with targeting and/or antimicrobial activity)
Organism, effect (E. faecalis): E. faecalis (C)
Organism, effect (MRSA): MRSA (C)
Organism, effect (S. epidermidis): S. epidermidis (C)
Organism, effect (E. coli): E. coli (C)
Activities (microorganisms): G B

PF-386: peptide having multiple activities (chain 1 FTLTLITTIVAILNYKDKKK; chain 2 FTLTLITTIVAILNYKDKKK; Peptide with targeting and/or antimicrobial activity)
Organism, effect (E. faecalis): E. faecalis (C)
Organism, effect (MRSA): MRSA (C)
Organism, effect (S. epidermidis): S. epidermidis (C)
Organism, effect (E. coli): E. coli (C)
Activities (microorganisms): G B

PF-395: peptide having multiple activities (YCVPLGNMGNMNNKIW; Peptide with targeting and/or antimicrobial activity)
Organism, effect (MRSA): MRSA (C)
Organism, effect (S. epidermidis): S. epidermidis (C)
Organism, effect (E. coli): E. coli (R)
Target(s) [1, 3]: S. epidermidis; also recorded: E. coli; also recorded: P. aeruginosa; also recorded: S. pneumoniae; also recorded: E. faecalis; also recorded: C. jeikeium; also recorded: C. jejuni
Activities (microorganisms): G B

PF-403: peptide having multiple activities (LLSTEQLLKYYDGETFDGFQLPSNE; Peptide with targeting and/or antimicrobial activity)
Organism, effect (MRSA): MRSA (M)
Organism, effect (S. epidermidis): S. epidermidis (M)
Organism, effect (E. coli): E. coli (R)
Target(s) [1, 3]: E. coli; also recorded: P. aeruginosa; also recorded: S. pneumoniae; also recorded: E. faecalis; also recorded: C. jeikeium; also recorded: C. jejuni
Activities (microorganisms): G B

PF-413: peptide having multiple activities (TFAGSIKIGVPDLVHVTFNCKR; Peptide with targeting and/or antimicrobial activity)
Organism, effect (MRSA): MRSA (C)
Organism, effect (S. epidermidis): S. epidermidis (C)
Organism, effect (E. coli): E. coli (S)
Target(s) [1, 3]: P. aeruginosa; also recorded: C. albicans; also recorded: C. jejuni
Activities (microorganisms): G B

PF-427: peptide having multiple activities (YVLEYHGLRATQDVDAFMAL; Peptide with targeting and/or antimicrobial activity)
Organism, effect (E. faecalis): E. faecalis (C)
Organism, effect (MRSA): MRSA (C)
Organism, effect (S. pneumoniae): S. pneumoniae (R)
Organism, effect (E. coli): E. coli (C)
Target(s) [1, 3]: M. luteus; also recorded: P. aeruginosa; also recorded: C. albicans; also recorded: C. jejuni
Activities (microorganisms): G B

PF-453: peptide having multiple activities (chain 1 IIQDIAHAFGY; chain 2 IIQDIAHAFGY; Peptide with targeting and/or antimicrobial activity)
Organism, effect (MRSA): MRSA (C)
Organism, effect (S. epidermidis): S. epidermidis (C)
Organism, effect (S. pneumoniae): S. pneumoniae (C)
Organism, effect (E. coli): E. coli (C)
Target(s) [1, 3]: M. luteus; also recorded: E. coli; also recorded: P. aeruginosa; also recorded: S. pneumoniae; also recorded: E. faecalis; also recorded: C. jeikeium; also recorded: C. jejuni
Activities (microorganisms): G B

PF-478: peptide having multiple activities (chain 1 HLFILKSHLKPFPPFRYTYD; chain 2 HLFILKSHLKPFPPFRYTYD; Peptide with targeting and/or antimicrobial activity)
Organism, effect (MRSA): MRSA (H)
Organism, effect (S. epidermidis): S. epidermidis (C)
Organism, effect (S. pneumoniae): S. pneumoniae (C)
Organism, effect (E. coli): E. coli (C)
Activities (microorganisms): G B

PF-514: peptide having multiple activities (chain 1 QRFYKLFYHIDLTNEQALKLFQVK; chain 2 QRFYKLFYHIDLTNEQALKLFQVK; Peptide with targeting and/or antimicrobial activity)
Organism, effect (E. faecalis): E. faecalis (C)
Organism, effect (S. epidermidis): S. epidermidis (C)
Organism, effect (S. pneumoniae): S. pneumoniae (M)
Organism, effect (E. coli): E. coli (R)
Target(s) [1, 3]: S. epidermidis and E. coli and P. aeruginosa and C. albicans and MRSA and S. pneumoniae and E. faecalis and C. jeikeium
Activities (microorganisms): G B

PF-519: peptide having multiple activities (chain 1 YLVYSGVLATAAAF-NH2; chain 2 YLVYSGVLATAAAF-NH2)
Organism, effect (E. faecalis): E. faecalis (C)
Organism, effect (MRSA): MRSA (C)
Organism, effect (S. pneumoniae): S. pneumoniae (S)
Organism, effect (E. coli): E. coli (R)
Target(s) [1, 3]: M. luteus; also recorded: E. faecalis; also recorded: C. jeikeium
Activities (microorganisms): G B

PF-532 (KFIYKYKLSFIIYKILIQTLTMELNK; Peptide with targeting and/or antimicrobial activity)
Organism, effect (E. faecalis): E. faecalis (C)
Organism, effect (MRSA): MRSA (C)
Organism, effect (S. pneumoniae): S. pneumoniae (C)
Organism, effect (E. coli): E. coli (C)

PF-540: peptide having multiple activities (chain 1 KSILILIKVIFIGQTTIIL; chain 2 KSILILIKVIFIGQTTIIL; Peptide with targeting and/or antimicrobial activity)
Organism, effect (MRSA): MRSA (H)
Organism, effect (S. epidermidis): S. epidermidis (H)
Organism, effect (S. pneumoniae): S. pneumoniae (R)
Organism, effect (E. coli): E. coli (R)
Target(s) [1, 3]: C. albicans
Activities (microorganisms): G B

PF-619: peptide having multiple activities (WSRVPGHSDTGWKVWHRW; Peptide with targeting and/or antimicrobial activity)
Organism, effect (MRSA): MRSA (M)
Organism, effect (S. epidermidis): S. epidermidis (M)
Organism, effect (S. pneumoniae): S. pneumoniae (C)
Organism, effect (E. coli): E. coli (C)
Activities (microorganisms): G B
